For one molecule, Compound recovery and AUC results are on record in ChEMBL document CHEMBL3508140 (2016).

The nature of data set [1]: Detection of epirubicinol in heart following single intravenous epirubicin at 10 mg.Kg-1 dose in female mouse bearing colon tumor. The conditions noted are these: in vivo. In kind it is ADME, organism-based, BALB/c.
The nature of data set [2]: AUC values (0-48 h) of epirubicinol in tumor following single intravenous epirubicin at 10 mg.Kg-1 dose in female mouse bearing colon tumor. In kind it is ADME, organism-based, BALB/c, Neoplasm. To be noted: in vivo.
Data set [3] in a line: AUC(0-24 h) of epirubicinol following intravenous epirubicin at 1 mg.Kg-1 dose in rabbit. In kind it is ADME, organism-based, Oryctolagus cuniculus, New Zealand White, Plasma. To be noted: in vivo.
Data set [4] is described as follows: Recovery of epirubicinol following intravenous epirubicin at 4 mg.Kg-1 dose in rabbit. In kind it is ADME, organism-based, Oryctolagus cuniculus, New Zealand White, Plasma. The conditions noted are these: in vivo.
Data set [5] is described as follows: Recovery of epirubicinol following intravenous epirubicin at 4 mg.Kg-1 dose in rat. To be noted: in vivo. In kind it is ADME, organism-based, SD, Plasma.
Data set [6] is described as follows: AUC(0-24 h) of epirubicinol following intravenous epirubicin at 3 mg.Kg-1 dose in rabbit. In kind it is ADME, organism-based, Oryctolagus cuniculus, New Zealand White, Plasma. The conditions noted are these: in vivo.
A short description of data set [7]: (§1) Urinary elimination of 4'-epiadriamycinol following intravenous bolus 4'-epiadriamycin at 10 mg.Kg-1 dose in rat. In kind it is ADME, organism-based, SD, Urine. The conditions noted are these: in vivo.
Data set [8] is described as follows: Urinary excretion of epirubicinol following epirubicin at 60 mg.m-2 dose in cancer patients. In kind it is ADME, organism-based, Urine. To be noted: human, in vivo; at 60 mg/m2.
The nature of data set [9]: Detection of epirubicinol in tumor following single intravenous epirubicin at 10 mg.Kg-1 dose in female mouse bearing colon tumor. The conditions noted are these: in vivo. In kind it is ADME, organism-based, BALB/c, Neoplasm.
Data set [10] in a line: Detection of epirubicinol in plasma following single intravenous epirubicin at 10 mg.Kg-1 dose in female mouse bearing colon tumor. In kind it is ADME, organism-based, BALB/c. To be noted: in vivo.
A short description of data set [11]: Recovery of epirubicinol following intravenous epirubicin at 1.5 mg.Kg-1 dose in man. In kind it is ADME, organism-based, Plasma. The conditions noted are these: human, in vivo.
The nature of data set [12]: AUC values (0-48 h) of epirubicinol in plasma following single intravenous epirubicin at 10 mg.Kg-1 dose in female mouse bearing colon tumor. In kind it is ADME, organism-based, BALB/c. To be noted: in vivo.
Data set [13] in a line: Urinary excretion of epirubicinol following epirubicin at 60-150 mg.m-2 dose in cancer patients. In kind it is ADME, organism-based, Urine. To be noted: human, in vivo.
The nature of data set [14]: Urinary excretion of epirubicinol following epirubicin at 75-90 mg.m-2 dose in cancer patients. In kind it is ADME, organism-based, Urine. To be noted: human, in vivo.
The nature of data set [15]: (§2) Urinary excretion of epirubicinol following epirubicin at 50 mg.m-2 dose in cancer patients. In kind it is ADME, organism-based, Urine. To be noted: human, in vivo; at 50 mg/m2.
Data set [16] can be described thus: AUC values (0-48 h) of epirubicinol in heart following single intravenous epirubicin at 10 mg.Kg-1 dose in female mouse bearing colon tumor. The conditions noted are these: in vivo. In kind it is ADME, organism-based, BALB/c.
Data set [17] in a line: Recovery of epirubicinol following intraperitoneal epirubicin at 4 mg.Kg-1 dose in mouse. In kind it is ADME, organism-based, CD-1, Plasma. To be noted: in vivo, ip.
The nature of data set [18]: as §2. In kind it is ADME, organism-based, Urine. The conditions noted are these: human, in vivo; at 50 mg/m2. The source holds these as a separate data set.
The nature of data set [19]: Recovery of epirubicinol following intraperitoneal epirubicin at 4 mg.Kg-1 dose in hamster. In kind it is ADME, organism-based, Cricetulus griseus, Plasma. The conditions noted are these: chinese hamster, in vivo, ip.
Data set [20] can be described thus: Biliary excretion of epirubicinol following epirubicin at 50 mg.m-2 dose in cancer patients. In kind it is ADME, organism-based, Bile. To be noted: human, in vivo; at 50 mg/m2.
Data set [21] can be described thus: as §1. In kind it is ADME, organism-based, SD, Urine. The conditions noted are these: in vivo. The source holds these as a separate data set.
The nature of data set [22]: as §1. In kind it is ADME, organism-based, SD, Urine. To be noted: in vivo. The source holds these as a separate data set.

`COc1cccc2c1C(=O)c1c(O)c3c(c(O)c1C2=O)C[C@@](O)(C(O)CO)C[C@@H]3O[C@H]1C[C@H](N)[C@@H](O)[C@H](C)O1` (some centres not stated): the Compound recovery entry in data set [1] was “OUTCOME = Observed”; in data set [4] it was 23 10^-9M; in data set [5] it was 0.4 10^-9M; in data set [7], 0.044%; in [8], 0.9%; in [9], “OUTCOME = Not detected/not observed”. In addition, the Compound recovery result is listed as “OUTCOME = Observed” in [10]; 15 10^-9M in data set [11]; 0.5% in data set [13]; 0.8% in data set [14]; 0.6% in data set [15]; 0.2 10^-9M in [17]. Besides, the Compound recovery in [18] is 4.1%; in data set [19] it was 3.3 10^-9M; in [20], 6.5%; in data set [21] it was 0.024%; in [22] it was 0.03%. Also, the AUC in [2] was found to be 0 nmol·min/g; in data set [3], 69.46 ng·h/mL; in data set [6], 204.86 ng·h/mL; in data set [12], 0.5 nmol·min/mL; in data set [16], 46 nmol·min/g.
